Test results as given in article PMC10537356, “Analyzing the Material Basis of Anti-RSV Efficacy of Lonicerae japonicae Flos Based on the PK-PD Model” (Molecules, 2023).
Like-named read-outs stand apart in the source and are kept apart here.

Key:
[1] = Pharmacokinetic study of 15 LJF components in plasma of RSV-infected mice after oral LJF extract (UHPLC-QQQ MS); assay type: in vivo; design: Tmax: unit: h
Method: The LJF (12.0 g) were pulverized and soaked in pure water at a solid: liquid ratio of 1:200 and followed by extraction for 30 min. Then, the LJF extract was obtained by filtration, centrifugation (5000 rpm, 10 min) and concentration. Finally, the remains were freeze-dried and stored at −20 °C for subsequent pharmacokinetic assays.
All mice fasted for 1 night after being acclimatized for 7 days (no water restriction) and were randomly separated into 3 groups with 6 mice in each group. One group of healthy mice was used as the normal control group and administered physiological saline; the model group was established by intranasal infusion of RSV (TCID50 = 10^−6, 35 μL/mouse) and administered physiological saline. Members of the drug group were orally administered with LJF extract at the dose of 12 g/kg after infecting RSV. At 0.25 h, 0.5 h, 0.75 h, 1 h, 1.5 h, 2 h, 3 h,4 h, 6 h, 8 h, 10 h, 12 h and 24 h after administration blood samples (approximately 500 μL) were collected into anticoagulant tubes. The blood samples were centrifuged at 3500 rpm, 4 °C for 10 min, and the plasma (upper layer) was separated and stored at −80 °C till analysis. At the same time, the lung tissue was removed, weighed and placed in the EP tube together with five times the weight of the lung tissue in PBS solution containing 1% PMSF. Subsequently, the tissue samples were homogenized using the tissue grinder, and centrifugation to obtain a supernatant for further examination.
An amount of 50 μL IS and 2 mL acetonitrile were mixed into 200 μL plasma, after which the mixture was centrifuged (12,000 rpm, 4 °C, 10 min) and dried with nitrogen. The residue was dissolved in 70% acetonitrile containing 1% formic acid, centrifuged and subsequently the supernatant (2 μL) was injected into the UHPLC-QQQ-MS system.
Agilent 1260 series (Santa Clara, CA, USA) chromatography system was equipped with a solvent degasser, G1311B quaternary pump and G1329B automated injector. The elution was performed on a Halo® C18 column (2.1 × 100 mm, 2.7 μm) at 30 °C, and the mobile phase consisted of 0.05% formic acid in water for solvent A and 0.05% formic acid in acetonitrile for solvent B at a flow rate of 0.3 mL/min. The gradient elution was as follows: 0–30 min at 5–25% B, 30–35 min at 25–55% B, 35–45 min at 55–70% B, 45–55 min at 70–100% B, and 5 μL for analysis.
The MS/MS analysis was performed by Agilent 6470 Triple Quadrupole LC/MS (Santa Clara, CA, USA) with an ESI source. MRM was selected for the detection of the standards and internal standard with a dwell time of 2 ms. The mass spectrometry conditions were optimized as follows: Nebulizer pressure: 50 psi; capillary: positive: 4000 V, negative: 3500 V; cell acceleration voltage: 5 V; gas temp: 350 °C and flow rate at 10 L/min. The acquired data were processed and analyzed by Mass Hunter Workstation quantitative analysis.
Fifteen standards and IS were optimized for mass conditions by the positive and negative ion modes of the chromatographic system, respectively. The pharmacokinetics of 15 chemical constituents in RSV-infected mice were assessed using the UPLC-QQQ-MS/MS method.
The pharmacokinetic parameters, including maximum concentration (Cmax), time to reach Cmax (Tmax), the elimination half-life (T1/2), mean residence time (MRT), and area under the concentration–time curve (AUC) were calculated using non-compartmental analysis by Phoenix 8.1.0.3530.

RSV = conditions: cited from earlier work; for anti-RSV effects: by inhibiting virus–cell fusion in the early stage and cell–cell fusion at the end of the RSV replication cycle
viruses = system: viruses; design: method as in PMID 19904996; conditions: prevents viruses from entering cells; cited from earlier work
[2] = RSV mice plasma, oral LJF extract 12.0 g/kg
[3] = mouse, plasma, po, 12 g/kg, RSV mice plasma, oral LJF extract 12.0 g/kg, n = 6, read-out: AUC(0–t)
[4] = mouse, plasma, po, 12 g/kg, RSV mice plasma, oral LJF extract 12.0 g/kg, n = 6, read-out: AUC(0–∞)
[5] = mouse, plasma, po, 12 g/kg, RSV mice plasma, oral LJF extract 12.0 g/kg, n = 6, read-out: Cmax
[6] = mouse, plasma, po, 12 g/kg, RSV mice plasma, oral LJF extract 12.0 g/kg, n = 6, read-out: MRT(0–t)
[7] = mouse, plasma, po, 12 g/kg, RSV mice plasma, oral LJF extract 12.0 g/kg, n = 6, read-out: T1/2 (converted)
[8] = mouse, RSV mice plasma, oral LJF extract 12.0 g/kg, n = 6, read-out: Tmax
[9] = mouse, in vivo, RSV mice plasma, oral LJF extract 12.0 g/kg, n = 6, read-out: AUC(0–t)
[10] = mouse, in vivo, RSV mice plasma, oral LJF extract 12.0 g/kg, n = 6, read-out: AUC(0–∞)
[11] = mouse, in vivo, RSV mice plasma, oral LJF extract 12.0 g/kg, n = 6, read-out: Cmax
[12] = mouse, in vivo, RSV mice plasma, oral LJF extract 12.0 g/kg, n = 6, read-out: MRT(0–t)
[13] = mouse, in vivo, RSV mice plasma, oral LJF extract 12.0 g/kg, n = 6, read-out: T1/2 (converted)
[14] = mouse, in vivo, RSV mice plasma, oral LJF extract 12.0 g/kg, n = 6, read-out: Tmax
[15] = RSV mice plasma, oral LJF extract 12.0 g/kg, n = 6

shape of the concentration–time curve [1, 2]	AUC(0-t) [1, 3]	AUC(0-inf) [1, 4]	Cmax [1, 5]	MRT last [1, 6]	half-life [1, 7]	Tmax [1, 8]	SMILES	further results
double or multiple peaks	5190 ng·h/mL	5900 ng·h/mL	5600 ng/mL	2.95 ± 0.0749 h	1570 ± 565 min	2 h	O=C(/C=C/c1ccc(O)c(O)c1)O[C@@H]1C[C@](O)(C(=O)O)C[C@@H](O)[C@H]1O [Chlorogenic acid]	inhibition of RSV infection (RSV; modulating TLR3, TBK1, IRF3 expression, decreasing IFN-β): could inhibit RSV infection
							C=C[C@H]1[C@H](O[C@@H]2O[C@H](CO)[C@@H](O)[C@H](O)[C@H]2O)OC=C2C(=O)OCC[C@H]21 [Sweroside]	Tmax ([1]; mouse, in vivo, po, 12 g/kg): 2 h; AUC(0-t) ([1]; mouse, in vivo, po, 12 g/kg, AUC(0–t)): 14200 ng·h/mL; AUC(0-inf) ([1]; mouse, in vivo, po, 12 g/kg, AUC(0–∞)): 17200 ng·h/mL; Cmax ([1]; mouse, in vivo, po, 12 g/kg, Cmax): 4630 ng/mL; MRT last ([1]; mouse, in vivo, po, 12 g/kg, MRT(0–t)): 7.17 ± 0.274 h; half-life ([1]; mouse, in vivo, po, 12 g/kg, T1/2): 606 ± 135 min
double or multiple peaks	2920 ng·h/mL	3280 ng·h/mL	779 ± 19.2 ng/mL	5.92 ± 0.239 h	475 ± 66 min	2 h	O=C(O)/C=C/c1ccc(O)c(O)c1 [Caffeic acid]	
double or multiple peaks	1260 ng·h/mL	1320 ng·h/mL	1410 ng/mL	2.79 ± 0.225 h	810 ± 179 min	2 h	O=C(C=Cc1ccc(O)c(O)c1)OC1C(O)CC(O)(C(=O)O)CC1O (stereo not shown) [Cryptochlorogenic acid]	
double or multiple peaks		27700 ng·h/mL	4670 ng/mL	7.19 ± 0.139 h	488 ± 76.8 min	2 h	C=C[C@H]1[C@H](O[C@@H]2O[C@H](CO)[C@@H](O)[C@H](O)[C@H]2O)OC=C(C(=O)OC)[C@H]1CC(=O)O [Secoxyloganin]	
	20.9 ± 5.37 ng·h/mL	21.3 ± 5.32 ng·h/mL	19.6 ± 6.11 ng/mL	2.12 ± 0.149 h	118 ± 44.8 min	2 h	O=c1cc(-c2ccc(O)c(O)c2)oc2cc(O)cc(O)c12 [Luteolin]	
double or multiple peaks	21500 ng·h/mL	22900 ng·h/mL	2450 ng/mL	7.37 ± 0.54 h	309 ± 91.2 min	1 h	C=C[C@H]1[C@H](O[C@@H]2O[C@H](CO)[C@@H](O)[C@H](O)[C@H]2O)OC=C2C(=O)OCC[C@]21O [Swertiamarin]	
double or multiple peaks							C[C@@H]1O[C@@H](OC[C@H]2O[C@@H](Oc3c(-c4ccc(O)c(O)c4)oc4cc(O)cc(O)c4c3=O)[C@H](O)[C@@H](O)[C@@H]2O)[C@H](O)[C@H](O)[C@H]1O [Rutin]	time of first peak of plasma concentration [1, 2]: 30 min; time of second peak of plasma concentration [1, 2]: 2 h; AUC(0-t) ([1]; mouse, in vivo, po, 12 g/kg, RSV mice plasma, oral LJF extract 12.0 g/kg, n = 6, read-out: AUC(0–t)): 31.3 ± 4.34 ng·h/mL; AUC(0-inf) ([1]; mouse, in vivo, po, 12 g/kg, RSV mice plasma, oral LJF extract 12.0 g/kg, n = 6, read-out: AUC(0–∞)): 34.3 ± 3.33 ng·h/mL; Cmax ([1]; mouse, in vivo, po, 12 g/kg, RSV mice plasma, oral LJF extract 12.0 g/kg, n = 6, read-out: Cmax): 30 ± 2.54 ng/mL; MRT last ([1]; mouse, in vivo, po, 12 g/kg, RSV mice plasma, oral LJF extract 12.0 g/kg, n = 6, read-out: MRT(0–t)): 1.51 ± 0.0291 h; half-life ([1]; mouse, in vivo, po, 12 g/kg, RSV mice plasma, oral LJF extract 12.0 g/kg, n = 6, read-out: T1/2 (converted)): 122 ± 66 min; Tmax [1, 14]: 0.5 h
double or multiple peaks	1070 ng·h/mL	1450 ng·h/mL	822 ± 53.9 ng/mL	4.64 ± 0.289 h	1600 ± 271 min	2 h	O=C(C=Cc1ccc(O)c(O)c1)OC1CC(O)(C(=O)O)CC(OC(=O)C=Cc2ccc(O)c(O)c2)C1O (stereo not shown) [Isochlorogenic acid A]	
double or multiple peaks	12100 ng·h/mL	13500 ng·h/mL	5730 ng/mL	4.88 ± 0.0632 h	654 ± 148 min	2 h	C=C[C@H]1[C@H](O[C@@H]2O[C@H](CO)[C@@H](O)[C@H](O)[C@H]2O)OC=C2C(=O)OC(O)C[C@H]21 (stereo partly shown) [Secologanic acid]	

SMILES	shape of the concentration–time curve [1, 2]	AUC(0-t) [1, 3]	AUC(0-inf) [1, 4]	Cmax [1, 5]	MRT last [1, 6]	half-life [1, 7]	Tmax [1, 8]	further results
O=c1c(O[C@@H]2O[C@H](CO)[C@@H](O)[C@H](O)[C@H]2O)c(-c2ccc(O)c(O)c2)oc2cc(O)cc(O)c12 [Isoquercitrin]	double or multiple peaks							AUC(0-t) [1, 9]: 26.5 ± 1.19 ng·h/mL; AUC(0-inf) [1, 10]: 39.6 ± 8.47 ng·h/mL; Cmax [1, 11]: 26.5 ± 1.16 ng/mL; MRT last [1, 12]: 1.5 ± 0.0366 h; half-life [1, 13]: 177 ± 103 min; Tmax [1, 14]: 0.5 h
O=C(C=Cc1ccc(O)c(O)c1)OC1CC(O)(C(=O)O)CC(O)C1OC(=O)C=Cc1ccc(O)c(O)c1 (stereo not shown) [Isochlorogenic acid B]	double or multiple peaks							AUC(0–t) [1, 15]: 1100 ng·h/mL; AUC(0–∞) [1, 15]: 1740 ng·h/mL; MRT(0–t) [1, 15]: 7.35 ± 0.170 h; T1/2 [1, 15]: 24.4 ± 2.72 h; Tmax [1, 15]: 2.00 ± 0.00 h; Cmax ([1]; RSV mice plasma, oral LJF extract 12.0 g/kg, n = 6, read-out: Cmax): 415 ± 4.69 ng/mL; anti-RSV effects (RSV): specific anti-RSV effects
C[C@@H]1[C@H]2[C@H](O[C@@H]3O[C@H](CO)[C@@H](O)[C@H](O)[C@H]3O)OC=C(C(=O)O)[C@H]2C[C@@H]1O [Loganic acid]		84.9 ± 12.8 ng·h/mL	99.3 ± 18.4 ng·h/mL	87.6 ± 10.9 ng/mL	2.29 ± 0.337 h	140 ± 25.7 min	0.5 h	antiviral activity (viruses): significant antiviral activity
O=c1cc(-c2ccc(O)c(O)c2)oc2cc(O[C@@H]3O[C@H](CO)[C@@H](O)[C@H](O)[C@H]3O)cc(O)c12 [Luteoloside]	double or multiple peaks							time of first peak of plasma concentration [1, 2]: 30 min; time of second peak of plasma concentration [1, 2]: 2 h; AUC(0-t) [1, 9]: 15.8 ± 0.991 ng·h/mL; AUC(0-inf) [1, 10]: 15.9 ± 1.01 ng·h/mL; Cmax [1, 11]: 16.5 ± 1.97 ng/mL; MRT last [1, 12]: 1.5 ± 0.0928 h; half-life [1, 13]: 20.6 ± 5.49 min; Tmax [1, 14]: 0.5 h
O=C(C=Cc1ccc(O)c(O)c1)OC1CC(O)(C(=O)O)CC(O)C1OC(=O)C=Cc1ccc(O)c(O)c1 (stereo not shown) [Isochlorogenic acid C]	double or multiple peaks	926 ± 39 ng·h/mL	1450 ng·h/mL	560 ± 20.7 ng/mL	6.39 ± 0.337 h	1610 ± 190 min	2 h	anti-RSV effects (RSV): specific anti-RSV effects
